# Assays:
# [1] = Urinary excretion in rats, 24 h (HPLC); type: in vivo, CFY male rats; conditions: rat urine
# Method: (§1) To the resorption tests CFY male rats weighing 170-200 g were used. After a 16-hour fasting period, Ipriflavon in a dose of 25 mg/kg (group A), Ipriflavon-β-cyclodextrin inclusion complex prepared according to Example 1 (group B) and Ipriflavon-β-cyclodextrin mixture (group C)--both containing the β-cyclodextrin in equimolar ratio to the active ingredient--were administered, thereafter rat-food and water were given "ad libitum" to the animals.
# (§2) The materials to be tested were mixed for 5 minutes in 2 ml of 1% methylcellulose solution and administered by the aid of a stomach tube. The plasma samples were collected 10, 30 minutes and 1, 2 and 4 hours after the treatment using mortal haemorrhage after transecting the Vena femoralis of the animals anasthesied with ether. The blood samples were charged into heparinized tubes, centrifuged, nutsch-filtered and stored deep-freezed, in vial until further use.
# In order to collect urinary samples, after treatment the animals were placed into individual metabolism vessel and urine and faeces were separately collected for 24 hours. The urinary samples were stored deep-freezed until further use. The concentration of the unchanged Ipriflavon and its main metabolite (7-hydroxy-isoflavon) in the urinary and the plasma samples was followed by HPLC. […]
# [2] = Solubility of Ipriflavon in aqueous cyclodextrin solutions (4 days agitation, 25° C., photometric); type: physicochemical
# Method: One of the evidence of the formation of inclusion complex between Ipriflavon and cyclodextrin is that the cyclodextrin increases the solubility of Ipriflavon in aqueous solutions. In order to determine this property, 10 mg of Ipriflavon, cyclodextrin in different amounts and 5 ml of distilled water were charged into 10 ml test tubes. After closing, the tubes were agitated for 4 days at 25° C. at 325 rpm, thereafter the samples were filtered on a G4 glass-filter and the filtrates were photometrically analysed in 50% aqueous ethanol solution.
# physchem = type: physicochemical; conditions: for Concentration of dissolved Ipriflavon: 37° C.
# Method: To carry out the dissolution tests 250 ml of distilled water were charged into a 500 ml flask and heated to 37° C. Thereafter the product in an amount corresponding to 50 mg of active ingredient was added then the suspension thus obtained was stirred at 1000 rpm using a magnetic stirrer. At fixed intervals 2-6 ml of samples were taken and filtered on glass-filter and after diluting, the filtrates were measured photometrically in an 1:1 mixture of water:ethanol.
# [3] = Resorption test in rats: plasma level of unchanged Ipriflavon (HPLC); type: in vivo, CFY male rats; conditions: rat
# Method: as §1, §2
# In order to collect urinary samples, after treatment the animals were placed into individual metabolism vessel and urine and faeces were separately collected for 24 hours. The urinary samples were stored deep-freezed until further use. The concentration of the unchanged Ipriflavon and its main metabolite (7-hydroxy-isoflavon) in the urinary and the plasma samples was followed by HPLC.
# To carry out the HPLC, liquid chromatography of typ RP-18 and LiChrosorb reverse phase column (grain size in case of plasma sample: 10 μm and in case of urinary samples: 5 μm) were used. Flow velocity of eluent: 1.5 ml/min, wave length of UV detector: 254 nm, paper-velocity: 0.2 cm/min.
# In case of plasma samples a mixture of 0.05M acetate buffer (pH=3):acetonitrile=60:40 and in case of urinary samples a mixture of acetate buffer:acetonitril=55:45 were used as eluent. The internal standard was ethanolic solution of 2-methyl-7-methoxy-4'-nitro-isoflavon (100 μg/ml) and to the calibration, solutions comprising 100 μg/ml and 10 μg/ml of 7-hydroxy-isoflavon in methanol were used.
# To analyse the plasma samples, to 1 ml of plasma 1 ml acetate-buffer (pH=5) and β-glucuronidase (arylsulfonase) enzyme (100 FU) diluted to 10-fold with 10 μl of distilled water were added and incubated at 37° C. for 24 hours. After incubation, 50 μl of 2N NaOH were added and the mixture was extracted with benzene and centrifuged. The organic phase was separated, the aqueous phase was made acidic with […] of 1N HCl, and after adding 50 μl of internal standard solution it was repeatedly extracted with 8 ml benzene. The organic phase was centrifuged,evaporated, the residue was dissolved in 100 μl of eluent and 50 μl of this solution were injected and measured.
# Equation of the calibration curve: y=8.2x-0.08; correlation coefficient: 0.9999.
# In Table IV the concentration values of unchanged Ipriflavon and in Table V the concentration values of the main metabolite determined in the blood of animals are shown. To group A Ipriflavon per se, to group B the inclusion complex according to the invention and to group C the mixture of Ipriflavon and β-cyclodextrin were administered.
# [4] = set-up: species or system CFY male rats; conditions: rat, in vivo, po
# Method: as §1
# as §2, with “The blood samples were charged into heparinized tubes, centrifuged, nutsch-filtered and stored deep-freezed, in vial until further use.” left out
# To analyse the plasma samples, to 1 ml of plasma 1 ml acetate-buffer (pH=5) and β-glucuronidase (arylsulfonase) enzyme (100 FU) diluted to 10-fold with 10 μl of distilled water were added and incubated at 37° C. for 24 hours. […] The organic phase was centrifuged,evaporated, the residue was dissolved in 100 μl of eluent and 50 μl of this solution were injected and measured. […]
# In Table IV the concentration values of unchanged Ipriflavon and in Table V the concentration values of the main metabolite determined in the blood of animals are shown. […]
# [5] = Resorption test in rats: plasma level of unchanged Ipriflavon (HPLC); set-up: species or system CFY male rats; conditions: rat, in vivo, po, 25 mg/kg, 1440 min
# [6] = set-up: species or system CFY male rats; conditions: rat, in vivo, po, 25 mg/kg, 1440 min
# [7] = cited from earlier work
# [8] = cited from earlier work; remark: listed apart in the source
# [9] = cited from earlier work; remark: listed apart in the source
# [10] = in vivo, po, 25 mg/kg, Plasma-level of unchanged Ipriflavon
structure (smiles),measurement,setting,value
O=c1c(-c2ccccc2)coc2cc(O)ccc12 [7-hydroxy-isoflavon],quantity of main metabolite of the total quantity of the metabolite,[1],50-55%
"CC(C)Oc1ccc2c(=O)c(-c3ccccc3)coc2c1 [Ipriflavon, 7-isopropoxy-isoflavon]",solubility at 96 h,"[2]; 12% aqueous alpha-cyclodextrin, solubility of Ipriflavon in α-cyclodextrin solution",20 to 22 µg/mL
same,increase of solubility in DIMEB,[2]; 15% DIMEB,1770 -fold
same,increase of solubility in TRIMEB,[2]; 15% TRIMEB,300 -fold
same,solubility at 96 h,"[2]; 15% aqueous dimeb, solubility in DIMEB solution",1700 to 2000 µg/mL
same,solubility at 96 h,"[2]; 15% aqueous trimeb, solubility in TRIMEB solution",440 µg/mL
same,solubility at 96 h,"[2]; aqueous α-cd 11 mg/ml, Solubility of Ipriflavon",4.12 µg/mL
same,solubility at 96 h,"[2]; aqueous α-cd 13 mg/ml, Solubility of Ipriflavon",4.68 µg/mL
same,solubility at 96 h,"[2]; aqueous α-cd 15 mg/ml, Solubility of Ipriflavon",5.08 µg/mL
same,solubility at 96 h,"[2]; aqueous α-cd 20 mg/ml, Solubility of Ipriflavon",6.1 µg/mL
same,solubility at 96 h,"[2]; aqueous α-cd 30 mg/ml, Solubility of Ipriflavon",8.19 µg/mL
same,solubility at 96 h,"[2]; aqueous α-cd 40 mg/ml, Solubility of Ipriflavon",9.63 µg/mL
same,solubility at 96 h,"[2]; aqueous α-cd 50 mg/ml, Solubility of Ipriflavon",10.6 µg/mL
same,solubility at 96 h,"[2]; aqueous α-cd 70 mg/ml, Solubility of Ipriflavon",14.8 µg/mL
same,solubility at 96 h,"[2]; aqueous α-cd 90 mg/ml, Solubility of Ipriflavon",18.2 µg/mL
same,solubility at 96 h,"[2]; aqueous α-cd 100 mg/ml, Solubility of Ipriflavon",21.6 µg/mL
same,solubility at 96 h,"[2]; aqueous α-cd 110 mg/ml, Solubility of Ipriflavon",19 µg/mL
same,solubility at 96 h,"[2]; aqueous α-cd 120 mg/ml, Solubility of Ipriflavon",23.6 µg/mL
same,solubility at 96 h,"[2]; aqueous β-cd 1 mg/ml, Solubility of Ipriflavon",2.52 µg/mL
same,solubility at 96 h,"[2]; aqueous β-cd 3 mg/ml, Solubility of Ipriflavon",7.03 µg/mL
same,solubility at 96 h,"[2]; aqueous β-cd 5 mg/ml, Solubility of Ipriflavon",11.4 µg/mL
same,solubility at 96 h,"[2]; aqueous β-cd 7 mg/ml, Solubility of Ipriflavon",15.9 µg/mL
same,solubility at 96 h,"[2]; aqueous β-cd 9 mg/ml, Solubility of Ipriflavon",19.5 µg/mL
same,solubility at 96 h,"[2]; aqueous β-cd 11 mg/ml, Solubility of Ipriflavon",15.2 µg/mL
same,solubility at 96 h,"[2]; aqueous β-cd 13 mg/ml, Solubility of Ipriflavon",15.5 µg/mL
same,solubility at 96 h,"[2]; aqueous β-cd 15 mg/ml, Solubility of Ipriflavon",15.8 µg/mL
same,solubility at 96 h,"[2]; aqueous β-cd 20 mg/ml, Solubility of Ipriflavon",13.5 µg/mL
same,solubility at 96 h,"[2]; aqueous β-cd 30 mg/ml, Solubility of Ipriflavon",7.59 µg/mL
same,solubility at 96 h,"[2]; aqueous β-cd 40 mg/ml, Solubility of Ipriflavon",6.2 µg/mL
same,solubility at 96 h,"[2]; aqueous β-cd 50 mg/ml, Solubility of Ipriflavon",5.44 µg/mL
same,solubility at 96 h,"[2]; aqueous β-cd 70 mg/ml, Solubility of Ipriflavon",6.08 µg/mL
same,solubility at 96 h,"[2]; aqueous β-cd 90 mg/ml, Solubility of Ipriflavon",6.93 µg/mL
same,solubility at 96 h,"[2]; aqueous β-cd 100 mg/ml, Solubility of Ipriflavon",6.64 µg/mL
same,solubility at 96 h,"[2]; aqueous β-cd 110 mg/ml, Solubility of Ipriflavon",5.98 µg/mL
same,solubility at 96 h,"[2]; aqueous β-cd 120 mg/ml, Solubility of Ipriflavon",5.66 µg/mL
same,solubility at 96 h,"[2]; aqueous γ-cd 11 mg/ml, Solubility of Ipriflavon",2.02 µg/mL
same,solubility at 96 h,"[2]; aqueous γ-cd 13 mg/ml, Solubility of Ipriflavon",2.05 µg/mL
same,solubility at 96 h,"[2]; aqueous γ-cd 15 mg/ml, Solubility of Ipriflavon",2.16 µg/mL
same,solubility at 96 h,"[2]; aqueous γ-cd 20 mg/ml, Solubility of Ipriflavon",2.38 µg/mL
same,solubility at 96 h,"[2]; aqueous γ-cd 30 mg/ml, Solubility of Ipriflavon",2.74 µg/mL
same,solubility at 96 h,"[2]; aqueous γ-cd solution, Solubility of Ipriflavon",3.26 µg/mL
same,solubility at 96 h,"[2]; beta-cyclodextrin solution, constant solubility value (solubility limit of the solid inclusion complex in excess Ipriflavon)",6 µg/mL
same,solubility at 96 h,"[2]; beta-cyclodextrin solution, solubility of Ipriflavon in β-cyclodextrin solution",16 to 20 µg/mL
same,solubility at 96 h,"[2]; distilled water, water, solubility of Ipriflavon in distilled water",1 to 2 µg/mL
same,increase of solubility in β-cyclodextrin solution vs distilled water,"[2]; β-cyclodextrin, depending on concentration",≤ 15 -fold
same,increase of solubility in γ-cyclodextrin solution,[2]; γ-cyclodextrin,3 -fold
same,Concentration of dissolved Ipriflavon,"physchem; 1 min, distilled water",435 ng/mL
same,Concentration of dissolved Ipriflavon,"physchem; 2 min, distilled water",327 ng/mL
same,Concentration of dissolved Ipriflavon,"physchem; 3 min, distilled water",401 ng/mL
same,Concentration of dissolved Ipriflavon,"physchem; 5 min, distilled water",507 ng/mL
same,Concentration of dissolved Ipriflavon,"physchem; 10 min, distilled water",882 ng/mL
same,Concentration of dissolved Ipriflavon,"physchem; 15 min, distilled water",1123 ng/mL
same,Concentration of dissolved Ipriflavon,"physchem; 20 min, distilled water",1197 ng/mL
same,Concentration of dissolved Ipriflavon,"physchem; 30 min, distilled water",1423 ng/mL
same,Concentration of dissolved Ipriflavon,"physchem; 40 min, distilled water",1508 ng/mL
same,Concentration of dissolved Ipriflavon,"physchem; 60 min, distilled water",1621 ng/mL
same,Concentration of dissolved Ipriflavon,"physchem; 90 min, distilled water",1525 ng/mL
same,Concentration of dissolved Ipriflavon,"physchem; 120 min, distilled water",1482 ng/mL
same,solubility,"physchem; distilled water, water",~1.5 µg/mL
same,time to reach the saturation value,physchem; free active ingredient,40 to 50 min
same,Plasma-level of unchanged Ipriflavon,"[3]; in vivo, po, 25 mg/kg, 10.2 min",0 µg/mL
same,Plasma-level of unchanged Ipriflavon,"[3]; in vivo, po, 25 mg/kg, 30 min",0 µg/mL
same,Plasma-level of unchanged Ipriflavon,"[3]; in vivo, po, 25 mg/kg, 60 min",0 µg/mL
same,Plasma-level of unchanged Ipriflavon,"[3]; in vivo, po, 25 mg/kg, 120 min",0 µg/mL
same,Plasma-level of unchanged Ipriflavon,"[3]; in vivo, po, 25 mg/kg, 2 h",0.095 µg/mL
same,Plasma-level of unchanged Ipriflavon,"[3]; in vivo, po, 25 mg/kg, 240 min",0 µg/mL
same,concentration at 2 h,[3]; [10],78 ng/mL
same,concentration at 4 h,[3]; [10],41 ng/mL
same,detection of unchanged Ipriflavon in plasma,[3]; p.o.,can be detected only in few periods (at 2 and 4 hours)
same,plasma level of main metabolite,[4],200 to 1000 ng/mL
same,Plasma-level of unchanged Ipriflavon,[5],0 µg/mL
same,Plasma-level of main metabolite (7-hydoxy-isoflavon),[6],0 µg/mL
same,solubility in water,[7],1 to 2 µg/mL
same,HPLC analysis of the blood,[8]; beagle dogs,metabolites thereof (7-hydroxy-isoflavon as main metabolite) appear in the blood
same,radioactive material administered discharged with the urine,"[8]; dog, in vivo",12%
same,resorption of the main metabolite,"[9]; dog, in vivo, po",152 ng·h/mL
same,Ipriflavon in the blood,"[9]; dogs, oral",cannot be detected in the blood

# Source: patent publication US5043326A, “Inclusion complex of 7-isopropoxy-isoflavon formed with cyclodextrin, the preparation thereof and pharmaceutical compositions containing these compounds as active ingredients” (priority 1985, dated 1991)
